This note sets out measurements from patent publication US20240116892A1, “HETEROCYCLIC AMIDE AND UREA COMPOUNDS AS JAK2 INHIBITORS” (Ajax Therapeutics, Inc., priority 2022, published 2024).

The assay addresses JAK2 (JH1 domain-catalytic, Y1007F, Y1008F) kinase (Homo sapiens (Human), UniProt O60674, Y1007F/Y1008F). Put plainly: JAK2 JH1 Domain Binding Assay. Conditions: qPCR readout. On the procedure: JAK2 (JH1 domain-catalytic, Y1007F, Y1008F) kinase was expressed as N-terminal fusion to the DNA binding domain of NFkB in transiently transfected HEK293 cells and subsequently tagged with DNA for qPCR detection. Streptavidin-coated magnetic beads were treated with biotinylated small molecule ligands for 30 minutes at room temperature to generate affinity resins for kinase assays. The liganded beads were blocked with excess biotin and washed with blocking buffer (SeaBlock (Pierce), 1% BSA, 0.05% Tween 20, 1 mmol/L DTT) to remove unbound ligand and to reduce nonspecific phage binding. Binding reactions were assembled by combining kinases, liganded affinity beads, and test compounds in 1× binding buffer (1× PBS, 0.05% Tween 20, 0.1% BSA, 1 mmol/L DTT). Test compound was prepared as 111× stocks in 100% DMSO and directly diluted into the assay wells. All reactions were performed in polypropylene 384-well plates in a final volume of 0.02 mL. The assay plates were incubated at room temperature with shaking for 1 hour and the affinity beads were washed with wash buffer (1× PBS, 0.05% Tween 20). The beads were then re-suspended in elution buffer (1× PBS, 0.05% Tween 20, 0.5 μmol/L non-biotinylated affinity ligand) and incubated at room temperature with shaking for 30 minutes. The kinase concentration in the eluate was measured by qPCR.

By Kd is commonly meant the equilibrium constant for the complex coming apart. A higher Kd goes with a looser complex.

Sequence of JAK2 (JH1 domain-catalytic, Y1007F, Y1008F) kinase (O60674 849-1124 Y1007F/Y1008F): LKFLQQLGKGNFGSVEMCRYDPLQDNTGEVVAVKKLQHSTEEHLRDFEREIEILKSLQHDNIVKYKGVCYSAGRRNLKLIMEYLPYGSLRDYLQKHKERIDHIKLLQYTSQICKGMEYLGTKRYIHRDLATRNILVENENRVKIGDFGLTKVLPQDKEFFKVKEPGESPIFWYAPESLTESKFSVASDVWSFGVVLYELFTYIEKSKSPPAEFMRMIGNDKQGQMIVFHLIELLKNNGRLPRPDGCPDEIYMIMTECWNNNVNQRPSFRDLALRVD

`COCc1cc2nc(N3CC[C@H](N(C)C(=O)Nc4cc(C(F)(F)F)cn(C)c4=O)[C@H](C)C3)cnc2[nH]1` [Example I-159-a, 1-((3R,4S)-1-(6-(methoxymethyl)-5H-pyrrolo[2,3-b]pyrazin-2-yl)-3-methylpiperidin-4-yl)-1-methyl-3-(1-methyl-2-oxo-5-(trifluoromethyl)-1,2-dihydropyridin-3-yl)urea] displayed a Kd of less than 10 nM.

Compound `CN1CCN(c2n[nH]c3ncc(N4CC[C@H](N(C)C(=O)Nc5cc(C(F)(F)F)cn(C)c5=O)C(F)(F)C4)cc23)CC1` (single isomer, unassigned) [Example I-154-b, (R)- or (S)-1-(3,3-difluoro-1-(3-(4-methylpiperazin-1-yl)-1H-pyrazolo[3,4-b]pyridin-5-yl)piperidin-4-yl)-1-methyl-3-(1-methyl-2-oxo-5-(trifluoromethyl)-1,2-dihydropyridin-3-yl)urea] registered a Kd of less than 10 nM.

`CN(C(=O)Nc1cc(C(F)(F)F)cn(C)c1=O)[C@@H]1CCN(c2cnc3[nH]ccc3n2)CC1(F)F` (single isomer, unassigned) [Example I-27-a] registered a Kd of less than 10 nM.

The compound `C[C@@H]1CN(C(=O)Nc2cc(C(F)(F)F)cn(C)c2=O)C2(CCN(c3cnc4[nH]cc(C#N)c4n3)CC2)C1` (single isomer, unassigned) [Example I-60-a] showed a Kd of 50 to 1000 nM.

The compound `CN(C(=O)Nc1cc(C(F)(F)F)cn(C)c1=O)[C@H]1CCN(c2cnc3[nH]ncc3c2)C[C@@H]1F` (stereo in doubt) [Example I-61-a, 1-((3S,4S)-3-fluoro-1-(1H-pyrazolo[3,4-b]pyridin-5-yl)piperidin-4-yl)-1-methyl-3-(1-methyl-2-oxo-5-(trifluoromethyl)-1,2-dihydropyridin-3-yl)urea] showed a Kd of less than 10 nM.

Compound `CN(C(=O)Nc1cc(C(F)(F)F)cn(C)c1=O)[C@H]1C[C@H]2C[C@@H]1CN2c1cnc(NC(=O)C2CC2)cn1` (single isomer, unassigned) [Example I-44-b] returned a Kd of 10 to 50 nM.

In turn, `Cc1n[nH]c2ncc(N3CCC(N(C)C(=O)Nc4cc(C(F)(F)F)cn(C)c4=O)C(F)(F)C3)cc12` (single isomer, unassigned) [Example I-36-a, (R)- or (S)-1-(3,3-difluoro-1-(3-methyl-1H-pyrazolo[3,4-b]pyridin-5-yl)piperidin-4-yl)-1-methyl-3-(1-methyl-2-oxo-5-(trifluoromethyl)-1,2-dihydropyridin-3-yl)urea] showed a Kd of less than 10 nM.

Consider `CN(C(=O)Nc1cc(C2CC2)cn([C@H]2CCCOC2)c1=O)C1CCN(c2cnc3[nH]ncc3c2)CC1` (single isomer, unassigned) [Example I-183-a, (S)- or (R)-1-(1-(1H-pyrazolo[3,4-b]pyridin-5-yl)piperidin-4-yl)-3-(5-cyclopropyl-2-oxo-1-(tetrahydro-2H-pyran-3-yl)-1,2-dihydropyridin-3-yl)-1-methylurea], for which the Kd was less than 10 nM.

In turn, `CC1CN(C(=O)Nc2cc(C(F)(F)F)cn(C)c2=O)C2(CCN(c3cnc4[nH]cc(F)c4n3)CC2)C1` (single isomer, unassigned) [Example I-54-b] displayed a Kd of 50 to 1000 nM.

In turn, `CN(C(=O)Nc1cc(C(F)(F)F)cn(C)c1=O)C1CCN(c2cnc3[nH]ncc3c2)CC1` [Example I-26, 1-(1-(1H-pyrazolo[3,4-b]pyridin-5-yl)piperidin-4-yl)-1-methyl-3-(1-methyl-2-oxo-5-(trifluoromethyl)-1,2-dihydropyridin-3-yl)urea] returned a Kd of less than 10 nM.

In turn, `CN(C(=O)Nc1cc(C(F)(F)F)cn(C)c1=O)[C@H]1CCN(c2cnc3[nH]nc(OC4CCOCC4)c3c2)C[C@H]1F` [Example I-107-b, 1-((3R,4S)-3-fluoro-1-(3-((tetrahydro-2H-pyran-4-yl)oxy)-1H-pyrazolo[3,4-b]pyridin-5-yl)piperidin-4-yl)-1-methyl-3-(1-methyl-2-oxo-5-(trifluoromethyl)-1,2-dihydropyridin-3-yl)urea] came in with a Kd of less than 10 nM.

As for `CC(=O)Nc1cnc(N2CCC(N(C)C(=O)Nc3cccc(C(F)(F)F)c3)CC2)cn1` [Example I-16, N-(5-(4-(1-methyl-3-(3-(trifluoromethyl)phenyl)ureido)piperidin-1-yl)pyrazin-2-yl)acetamide], the Kd is less than 10 nM.

With `Cc1cc(NC(=O)N(C)C2CCN(c3cnc4[nH]ccc4n3)CC2)cc(C(F)(F)F)c1` [Example I-11, 1-(1-(5H-pyrrolo[2,3-b]pyrazin-2-yl)piperidin-4-yl)-1-methyl-3-(3-methyl-5-(trifluoromethyl)phenyl)urea], the Kd was less than 10 nM.

Turning to `COc1n[nH]c2ncc(N3CCC(N(C)C(=O)Nc4cc(C5CC5)cn([C@@H]5CCCOC5)c4=O)CC3)cc12` [Example I-136-b, (R)-3-(5-cyclopropyl-2-oxo-1-(tetrahydro-2H-pyran-3-yl)-1,2-dihydropyridin-3-yl)-1-(1-(3-methoxy-1H-pyrazolo[3,4-b]pyridin-5-yl)piperidin-4-yl)-1-methylurea], the Kd was less than 10 nM.

Consider `Cc1cc2nc(N3CCC(N(C)C(=O)Nc4cc(C(F)(F)F)cn(C)c4=O)CC3)cnc2[nH]1` [Example I-31, 1-methyl-3-(1-methyl-2-oxo-5-(trifluoromethyl)-1,2-dihydropyridin-3-yl)-1-(1-(6-methyl-5H-pyrrolo[2,3-b]pyrazin-2-yl)piperidin-4-yl)urea], for which the Kd was less than 10 nM.

`COc1n[nH]c2ncc(N3CC[C@H](N(C)C(=O)Nc4cc(C(F)(F)F)cn(C)c4=O)[C@H](C)C3)cc12` [Example I-131-a, 1-((3R,4S)-1-(3-methoxy-1H-pyrazolo[3,4-b]pyridin-5-yl)-3-methylpiperidin-4-yl)-1-methyl-3-(1-methyl-2-oxo-5-(trifluoromethyl)-1,2-dihydropyridin-3-yl)urea] showed a Kd of less than 10 nM.

As to `CN(C(=O)Nc1cc(C(F)(F)F)cn(C)c1=O)[C@H]1CCN(c2cnc3[nH]c(=O)n(C)c3c2)C[C@H]1F` [Example I-103-a, 1-((3R,4S)-3-fluoro-1-(1-methyl-2-oxo-2,3-dihydro-1H-imidazo[4,5-b]pyridin-6-yl)piperidin-4-yl)-1-methyl-3-(1-methyl-2-oxo-5-(trifluoromethyl)-1,2-dihydropyridin-3-yl)urea], the Kd was less than 10 nM.

With `CC(=O)Nc1cnc(N2CCC(N(C)C(=O)Nc3cc(C)cc(C(F)(F)F)c3)CC2)cn1` [Example I-13, N-(5-(4-(1-methyl-3-(3-methyl-5-(trifluoromethyl)phenyl)ureido)piperidin-1-yl)pyrazin-2-yl)acetamide], the Kd is less than 10 nM.

`CN(C(=O)Nc1cc(C(F)(F)F)cn(C)c1=O)C1CCN(c2cnc3[nH]cnc3c2)CC1` [Example I-38, 1-(1-(3H-imidazo[4,5-b]pyridin-6-yl)piperidin-4-yl)-1-methyl-3-(1-methyl-2-oxo-5-(trifluoromethyl)-1,2-dihydropyridin-3-yl)urea] came in with a Kd of 10 to 50 nM.

For `COCc1cc2nc(N3CC[C@@H](N(C)C(=O)Nc4cc(C(F)(F)F)cn(C)c4=O)[C@@H](C)C3)cnc2[nH]1` [Example I-159-b, 1-((3S,4R)-1-(6-(methoxymethyl)-5H-pyrrolo[2,3-b]pyrazin-2-yl)-3-methylpiperidin-4-yl)-1-methyl-3-(1-methyl-2-oxo-5-(trifluoromethyl)-1,2-dihydropyridin-3-yl)urea], the Kd was less than 10 nM.

`COc1n[nH]c2ncc(N3CCC(N(C)C(=O)Nc4cc(C(F)(F)F)ccn4)CC3)cc12` [Example I-138, 1-(1-(3-methoxy-1H-pyrazolo[3,4-b]pyridin-5-yl)piperidin-4-yl)-1-methyl-3-(4-(trifluoromethyl)pyridin-2-yl)urea] showed a Kd of less than 10 nM.

The compound `CN(C(=O)Nc1cc(C(C)(C)C)n([C@@H]2CCOC2)n1)C1CCN(c2cnc3[nH]ncc3c2)CC1` [Example I-173, (R)-1-(1-(1H-pyrazolo[3,4-b]pyridin-5-yl)piperidin-4-yl)-3-(5-(tert-butyl)-1-(tetrahydrofuran-3-yl)-1H-pyrazol-3-yl)-1-methylurea] came in with a Kd of less than 10 nM.

`COc1c[nH]c2ncc(N3CC[C@@H]4[C@@H](C3)OCCN4C(=O)Nc3cc(C(F)(F)F)cn(C)c3=O)nc12` [Example I-163-b, (4aR,8aR)-6-(7-methoxy-5H-pyrrolo[2,3-b]pyrazin-2-yl)-N-(1-methyl-2-oxo-5-(trifluoromethyl)-1,2-dihydropyridin-3-yl)octahydro-1H-pyrido[3,4-b][1,4]oxazine-1-carboxamide]: the Kd was 10 to 50 nM.

Consider `COCCOc1n[nH]c2ncc(C34CC(N(C)C(=O)Nc5cc(C(F)(F)F)cn(C)c5=O)(C3)C4)cc12` [Example I-157, 1-(3-(3-(2-methoxyethoxy)-1H-pyrazolo[3,4-b]pyridin-5-yl)bicyclo[1.1.1]pentan-1-yl)-1-methyl-3-(1-methyl-2-oxo-5-(trifluoromethyl)-1,2-dihydropyridin-3-yl)urea], for which the Kd is less than 10 nM.
